Series [1] concerns Plasmodium berghei ANKA. Put plainly: Malaria mouse model of gametocyte transmission to mosquitoes (oocyst count). The note with it: mice, Anopheles stephensi. The format is in vivo.
The subject of series [2] is P. falciparum strain 3D7 gametocytes. Put plainly: alamarBlue gametocyte viability assay, strain 3D7. In general terms: Resazurin is reduced to fluorescent resorufin, in cell work by metabolically active cells.
The subject of series [3] is HepG2 cells. Put plainly: Cytotoxicity in mammalian HepG2 cell line. The settings on record: for % Max response: HepG2; for IC50 / IC50 (μM) in HepG2 / IC50 (μM) in HepG2 cells: Inactive = no significant activity at highest tested concentration (46 μM).
Series [4] concerns Asexual parasites of P. falciparum strain 3D7. Nature of the series: SYBR Green viability assay on asexual parasites. In kind it is cell-based, Plasmodium falciparum. The note with it: read-out: IC50 in viability assay using asexual parasites.
Series [5] relates to P. falciparum strain HB3 gametocytes. Nature of the series: alamarBlue gametocyte viability assay, strain HB3.
Series [6] deals with P. falciparum strain Dd2 gametocytes. Put plainly: alamarBlue gametocyte viability assay, strain Dd2.
Series [7] concerns Dd2 asexual parasites. The settings on record: compared to 3D7; ref [27]; cited from earlier work.
Setting [8] is: read-out: Gametocyte IC50, mean of at least 3 independent experiments, P. falciparum 3D7 gametocyte.
Setting [9] is: read-out: IC50 (μM) in HepG2, Table 2.
Where [10] appears, read: read-out: IC50 (μM) in HepG2 cells, Table 4.
Where [11] appears, read: read-out: HB3-IC50, Table 3, 11 concentrations, 1:3 dilution, three times.
[12] abbreviates: read-out: Dd2-IC50, Table 3, 11 concentrations, 1:3 dilution, three times.
Setting [13] is: read-out: 3D7-IC50, Table 3, 11 concentrations, 1:3 dilution, three times.
Where [14] appears, read: Plasmodium falciparum, HB3, read-out: HB3-IC50.

Usually IC50 stands for the concentration that inhibits the measured activity by half.

Where two headings read alike, the source gives them in different places. Starred links: 1 amine or outer side, 2 acyl side, 3 side chain; linkers in the order of their positions; H or OH if unused. Positions of bridges follow the written chain, without caps; N, C: chain ends. Non-standard residues stand in square brackets, D forms with d. Residues, ends and D or L forms follow the SMILES beside them. Chains are numbered I, II in the order given. Actinocin(9to1) = Cc1c2oc3c(C)ccc(C(=O)[*:1])c3nc-2c(C(=O)[*:2])c(N)c1=O; NMeV = CN[C@H](C(=O)O)C(C)C; Sar = CNCC(=O)O

In the case of `Nc1ccc(-c2ccc3ncc4ccc(=O)n(-c5cccc(C(F)(F)F)c5)c4c3c2)cn1` [Torin 2], the “oocyst production in mosquitoes” value was “almost completely eliminated” in series [1] (single 4 mg/kg dose i.v.), “significantly reduced” in series [1] (single dose of 2 mg/kg i.v.) and “completely blocked” in series [1] (two 4 mg/kg doses i.v.). The IC50 in series [2] (setting [8]) amounted to 8 nM; in series [3] (setting [9]), 9.35 µM; in series [3] (setting [10]), 9.35 µM; in series [4], 2.75 nM; in series [5] (setting [11]), 15 nM; in series [6] (setting [12]), 12 nM. Moreover, the “% Max response” value in series [3] (Table 2) and in series [3] (Table 4) was −46% throughout. For the same compound, the “cytotoxicity in HepG2 cells” value in series [3] (at the highest tested concentration (46 μM)) is recorded as “partial cytotoxicity”.
For the compound `CC1=C(CO)C(=O)O[C@@H]([C@@H](C)[C@H]2CC[C@H]3[C@@H]4C[C@H]5O[C@]56[C@@H](O)C=CC(=O)[C@]6(C)[C@H]4CC[C@]23C)C1` [Withaferin A], the half-maximal inhibitory concentration (IC50) in series [2] (setting [13]) stood at 300 nM; in series [2] (setting [8]) it was 372 nM; in series [3] (setting [9]), 9.35 µM; in series [3] (setting [10]) it was 9.35 µM; in series [5] (setting [11]), 1330 nM; in series [6] (setting [12]), 372 nM. Further, the “% Max response” value in series [3] (Table 2) and in series [3] (Table 4) was −80% in each case.
In the case of `Cc1c2oc3c(C)ccc(C(=O)N[C@@H]4C(=O)N[C@H](C(C)C)C(=O)N5CCC[C@H]5C(=O)N(C)CC(=O)N(C)[C@@H](C(C)C)C(=O)O[C@@H]4C)c3nc-2c(C(=O)N[C@@H]2C(=O)N[C@H](C(C)C)C(=O)N3CCC[C@H]3C(=O)N(C)CC(=O)N(C)[C@@H](C(C)C)C(=O)O[C@@H]2C)c(N)c1=O` [Dactinomycin] (I: T[dV]P[Sar][NMeV] / II: T[dV]P[Sar][NMeV]; ester I:1-I:C, II:1-II:C; linker I:N-II:N via Actinocin(9to1)), the IC50 in series [2] (Plasmodium falciparum, 3D7, read-out: Gametocyte IC50) was found to be 15 nM; in series [5] (setting [14]), 19 nM; in series [6] (Plasmodium falciparum, DD2, read-out: Dd2-IC50), 33 nM. In addition, in series [3] (Homo sapiens, HepG2, read-out: % Max response), the Emax came out at 1%. In addition, the “IC50 (μM) in HepG2” value in series [3] (Table 2) is “Inactive”. In addition, the “IC50 (μM) in HepG2 cells” value in series [3] (Table 4) is reported as “Inactive”.
As for `CN(C)c1ccc2nc3ccc(=[N+](C)C)cc-3sc2c1` [Methylene blue], the IC50 in series [2] (Plasmodium falciparum, 3D7, read-out: 3D7-IC50) is 300 nM; in series [5] (setting [14]) it was 935 nM; in series [6] (Plasmodium falciparum, DD2, read-out: Dd2-IC50, Table 3, 11 concentrations, 1:3 dilution, three times), 526 nM; in series [6] (Plasmodium falciparum, DD2, read-out: IC50 against Dd2 gametocytes) it was 526 nM. In addition, the “% Max response” value in series [3] (Table 4) was −20%. In series [3] (Table 4), the “IC50 (μM) in HepG2 cells” value is on record as “Inactive”.
As to `CCN(CC)CCCC(C)Nc1ccnc2cc(Cl)ccc12` (stereo not drawn) [chloroquine], in series [7], the “fold less potent against Dd2 asexual parasites” value is on record as 10 fold. Besides, the “reduction of potency against Dd2 gametocytes compared to 3D7” value in series [6] is recorded as 3.7 fold.
On to `CCN(CCO)CCCOc1ccc2c(Nc3cc(CC(=O)Nc4cccc(F)c4)[nH]n3)ncnc2c1` [AZD-1152-HQPA], for which the IC50 in series [2] (setting [13]) stood at 743 nM; in series [2] (setting [8]), 743 nM; in series [5] (setting [11]) it was 1480 nM; in series [6] (setting [12]), 1480 nM. Also, the “% Max response” value in series [3] (Table 2) and in series [3] (Table 4) was 11% each time. Further, the “IC50 (μM) in HepG2” value in series [3] (Table 2) is “Inactive”. For the same compound, the “IC50 (μM) in HepG2 cells” value in series [3] (Table 4) was “Inactive”.

Values taken from patent publication US20160264570A1, “METHOD OF BLOCKING TRANSMISSION OF MALARIAL PARASITE” (THE UNITED STATES OF AMERICA, AS REPRESENTED BY THE …, priority 2013, published 2016).
